Measured values: paper PMC5608406, “In vivo activation of latent HIV with a synthetic bryostatin analog effects both latent cell "kick" and "kill" in strategy for virus eradication” (PLoS Pathogens, 2017)
Entries after “also recorded” stand apart in the source; their conditions may differ.

Experiments:
PKC alpha = biological target: T1, PKC alpha (Homo sapiens, UniProt P17252); assay: PKC binding assay, competition with 3H-PDBu
T1 construct: purchased Invitrogen
Description: (§1) This entails a glass-fiber filtration method to determine bound radioligand.
(§2) To a polypropylene vial was added Tris-HCl (pH 7.4, 1 M, 1 mL), KCl (1 M, 2 mL), CaCl2 (0.1 M, 30 μL), and bovine serum albumin (40 mg, from Sigma). This mixture was diluted to 20 mL with deionized H2O, and mixed gently. The buffer was stored on ice until use. The final concentration of these constituents are shown in S2 Table.
(§3) For every 2 assays, 3.5 mg phosphatidylserine (Avanti Polar Lipids, porcine, obtained as a solution in CHCl3) was isolated by removing chloroform under a stream of nitrogen followed by reduced pressure. The solid PS was suspended as vesicles in binding assay buffer (3.5 mL) by sonicating (Branson Sonifier 250, power = 2, 50% duty cycle) six times for 30 s with a 30 s rest between sonications. The resulting cloudy mixture (1 mg/mL PS) was stored on ice until use.
(§4) Assay Protein Kinase C (PKC) was prepared by dissolving a 4 μg aliquot of the indicated recombinant human PKC isoform (Invitrogen) into 11.6 mL of binding assay buffer. The KD values for all 7 isoforms were determined experimentally. The diluted PKC was stored on ice for immediate use. This amount is sufficient for 2 assays with room for error.
(§5) This 500 nM stock solution was further diluted in DMSO to 30 nM for use in assays. The 500 nM and 30 nM stock solutions were stored frozen in DMSO at −20°C until use. […] Seven analog concentrations were used to define the inhibition curve.
(§6) The resulting solution was vortexed to mix and stored on ice.
(§7) Triplicate data points were obtained for each analog concentration. For each data point, 280 μL of Master Mix Solution and test compound at the given concentration (20 μL) were added to a polypropylene tube. […] Counts per minute (cpm) were averaged for each triplicate dilution.

PKC beta I = biological target: T2, PKC beta I (Homo sapiens, UniProt P05771); assay: PKC binding assay, competition with 3H-PDBu
T2 construct: purchased Invitrogen
T2 sequence (P05771 whole entry): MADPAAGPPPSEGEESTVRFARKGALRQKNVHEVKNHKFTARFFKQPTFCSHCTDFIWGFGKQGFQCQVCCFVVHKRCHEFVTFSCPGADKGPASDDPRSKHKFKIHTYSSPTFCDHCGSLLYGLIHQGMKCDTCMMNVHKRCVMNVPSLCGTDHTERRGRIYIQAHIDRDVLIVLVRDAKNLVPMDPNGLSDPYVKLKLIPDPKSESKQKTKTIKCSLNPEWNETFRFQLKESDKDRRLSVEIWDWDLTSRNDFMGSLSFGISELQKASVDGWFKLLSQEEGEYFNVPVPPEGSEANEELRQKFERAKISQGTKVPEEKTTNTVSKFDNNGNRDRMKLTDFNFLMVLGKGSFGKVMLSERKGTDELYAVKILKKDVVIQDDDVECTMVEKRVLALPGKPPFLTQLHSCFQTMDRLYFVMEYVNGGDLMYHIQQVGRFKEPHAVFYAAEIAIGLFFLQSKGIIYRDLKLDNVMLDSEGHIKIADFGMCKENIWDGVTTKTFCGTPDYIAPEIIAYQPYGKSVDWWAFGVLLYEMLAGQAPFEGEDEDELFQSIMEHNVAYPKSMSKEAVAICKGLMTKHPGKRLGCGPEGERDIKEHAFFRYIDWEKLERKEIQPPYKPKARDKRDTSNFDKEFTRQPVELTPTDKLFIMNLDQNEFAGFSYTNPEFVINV
Description: as §1, §2, §3, §4, §5, §6, §7

PKC delta = biological target: T3, PKC delta (Homo sapiens, UniProt Q05655); assay: PKC binding assay, competition with 3H-PDBu
T3 construct: purchased Invitrogen
T3 sequence (Q05655 whole entry): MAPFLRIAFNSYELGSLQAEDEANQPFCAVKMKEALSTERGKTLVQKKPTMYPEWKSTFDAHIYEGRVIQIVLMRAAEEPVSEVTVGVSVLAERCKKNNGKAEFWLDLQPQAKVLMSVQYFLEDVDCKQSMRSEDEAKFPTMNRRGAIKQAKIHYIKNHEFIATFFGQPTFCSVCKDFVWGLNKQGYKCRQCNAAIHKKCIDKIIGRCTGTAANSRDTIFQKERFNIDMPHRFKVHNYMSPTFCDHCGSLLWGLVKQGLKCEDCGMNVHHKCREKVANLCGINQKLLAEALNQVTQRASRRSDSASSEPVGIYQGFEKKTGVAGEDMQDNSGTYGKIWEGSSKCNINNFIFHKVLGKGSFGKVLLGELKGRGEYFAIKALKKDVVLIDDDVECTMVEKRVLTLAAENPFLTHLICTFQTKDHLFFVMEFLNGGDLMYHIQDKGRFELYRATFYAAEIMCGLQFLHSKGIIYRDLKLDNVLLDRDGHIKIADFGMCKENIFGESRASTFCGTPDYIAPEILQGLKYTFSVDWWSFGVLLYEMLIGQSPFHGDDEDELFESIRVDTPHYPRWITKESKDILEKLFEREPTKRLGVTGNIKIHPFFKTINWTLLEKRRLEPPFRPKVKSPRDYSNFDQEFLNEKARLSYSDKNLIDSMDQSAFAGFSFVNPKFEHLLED
Description: as §1, §2, §3, §4, §5, §6, §7

PKC epsilon = biological target: T4, PKC epsilon (Homo sapiens, UniProt Q02156); assay: PKC binding assay, competition with 3H-PDBu
T4 construct: purchased Invitrogen
T4 sequence (Q02156 1-737): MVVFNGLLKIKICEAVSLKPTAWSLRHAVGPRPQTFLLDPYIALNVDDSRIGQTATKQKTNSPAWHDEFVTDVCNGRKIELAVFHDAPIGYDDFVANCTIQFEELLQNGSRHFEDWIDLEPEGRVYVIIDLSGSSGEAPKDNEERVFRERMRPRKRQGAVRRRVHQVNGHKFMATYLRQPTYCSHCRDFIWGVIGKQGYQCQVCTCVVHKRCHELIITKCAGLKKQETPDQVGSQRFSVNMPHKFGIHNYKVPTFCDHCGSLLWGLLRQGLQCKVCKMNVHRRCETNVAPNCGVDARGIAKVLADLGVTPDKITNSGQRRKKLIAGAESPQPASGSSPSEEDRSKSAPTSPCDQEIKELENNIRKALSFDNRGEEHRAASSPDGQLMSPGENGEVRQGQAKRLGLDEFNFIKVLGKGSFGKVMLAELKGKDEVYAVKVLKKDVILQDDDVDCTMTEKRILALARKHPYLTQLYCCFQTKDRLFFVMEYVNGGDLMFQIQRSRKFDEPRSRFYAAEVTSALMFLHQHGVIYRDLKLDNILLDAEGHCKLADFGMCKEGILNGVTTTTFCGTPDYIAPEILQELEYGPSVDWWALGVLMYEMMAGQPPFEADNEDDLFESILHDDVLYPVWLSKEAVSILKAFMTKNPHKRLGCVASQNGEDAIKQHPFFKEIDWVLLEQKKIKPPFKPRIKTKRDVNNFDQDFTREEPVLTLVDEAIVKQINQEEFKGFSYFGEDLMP
Description: as §1, §2, §3, §4, §5, §6, §7

PKC eta = biological target: T5, PKC eta (Homo sapiens, UniProt P24723); assay: PKC binding assay, competition with 3H-PDBu
T5 construct: purchased Invitrogen
T5 sequence (P24723 whole entry): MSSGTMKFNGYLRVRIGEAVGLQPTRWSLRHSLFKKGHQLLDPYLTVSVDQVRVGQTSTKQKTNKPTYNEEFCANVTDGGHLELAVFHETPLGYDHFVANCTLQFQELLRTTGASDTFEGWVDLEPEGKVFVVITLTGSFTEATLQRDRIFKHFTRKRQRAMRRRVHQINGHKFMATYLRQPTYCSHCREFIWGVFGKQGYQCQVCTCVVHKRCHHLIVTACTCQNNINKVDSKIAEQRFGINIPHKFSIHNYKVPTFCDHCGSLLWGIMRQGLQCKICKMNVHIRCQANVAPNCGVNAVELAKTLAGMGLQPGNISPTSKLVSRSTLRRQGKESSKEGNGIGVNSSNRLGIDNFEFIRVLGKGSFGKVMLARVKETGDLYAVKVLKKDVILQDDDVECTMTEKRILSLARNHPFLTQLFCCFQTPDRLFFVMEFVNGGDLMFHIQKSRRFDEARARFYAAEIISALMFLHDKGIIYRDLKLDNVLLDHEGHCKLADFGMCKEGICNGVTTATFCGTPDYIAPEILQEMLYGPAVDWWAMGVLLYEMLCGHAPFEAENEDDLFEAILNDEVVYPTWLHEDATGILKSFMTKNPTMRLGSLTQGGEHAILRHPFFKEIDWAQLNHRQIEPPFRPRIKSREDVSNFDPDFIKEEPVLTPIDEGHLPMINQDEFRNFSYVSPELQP
Description: as §1, §2, §3, §4, §5, §6, §7

PKC gamma = biological target: T6, PKC gamma (Homo sapiens, UniProt P05129); assay: PKC binding assay, competition with 3H-PDBu
T6 construct: purchased Invitrogen
Description: as §1, §2, §3, §4, §5, §6, §7

PKC theta = biological target: T7, PKC theta (Homo sapiens, UniProt Q04759); assay: PKC binding assay, competition with 3H-PDBu
T7 construct: purchased Invitrogen
T7 sequence (Q04759 whole entry): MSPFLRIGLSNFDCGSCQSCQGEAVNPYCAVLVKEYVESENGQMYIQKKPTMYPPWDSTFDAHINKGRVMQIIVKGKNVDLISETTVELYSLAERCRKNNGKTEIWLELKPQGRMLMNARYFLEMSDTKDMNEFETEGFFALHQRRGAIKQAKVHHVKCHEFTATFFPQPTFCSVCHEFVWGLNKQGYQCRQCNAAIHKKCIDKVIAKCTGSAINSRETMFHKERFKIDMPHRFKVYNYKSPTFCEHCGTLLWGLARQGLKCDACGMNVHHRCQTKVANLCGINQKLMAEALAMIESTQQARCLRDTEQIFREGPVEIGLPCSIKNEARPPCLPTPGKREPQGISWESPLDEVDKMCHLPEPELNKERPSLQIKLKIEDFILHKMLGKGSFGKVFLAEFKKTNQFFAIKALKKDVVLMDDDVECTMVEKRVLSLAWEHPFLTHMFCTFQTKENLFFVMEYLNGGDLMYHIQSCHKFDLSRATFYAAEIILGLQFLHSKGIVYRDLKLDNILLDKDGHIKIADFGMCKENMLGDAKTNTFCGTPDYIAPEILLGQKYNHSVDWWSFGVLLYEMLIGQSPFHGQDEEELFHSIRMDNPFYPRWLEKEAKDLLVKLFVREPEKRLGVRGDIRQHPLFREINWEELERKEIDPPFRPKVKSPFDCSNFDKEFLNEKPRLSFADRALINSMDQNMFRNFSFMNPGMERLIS
Description: as §1, §2, §3, §4, §5, §6, §7

[1] = test system: latent HIV in CD4+ T cells from ART-treated patients; assay: Activation of HIV from latency in patient-derived CD4+ T cells (virion-associated HIV RNA in supernatant); format: cell-based, human
Excerpt: Nine HIV-infected individuals receiving ART for a median of 2.6 years (range 0.4–9.1) were studied. All study subjects maintained undetectable levels of plasma viremia (<50 copies/mL) at the time of study (S1 Table).
CD4^+ T cells were isolated from cryopreserved peripheral blood mononuclear cells (PBMCs) using a cell enrichment kit (StemCell Technologies). For patient samples 1–6, resting CD4^+ T cells were further isolated by depleting CD25^+, HLA-DR^+ and CD69^+ CD4^+ cells using PE-conjugated antibodies (BD Biosciences) and anti-PE microbeads (Miltenyi Biotec). CD4^+ T cells were incubated with RPMI 1640-based medium containing antiretroviral drugs consisting of T-20 (100 μg/mL), tenofovir (1 μM), and emtricitabine (1 μM), and test stimuli at concentrations indicated in the figures.
The copy number of virion-associated HIV RNA in the cell culture supernatants was measured using the Cobas Ampliprep/Cobas Taqman HIV-1 Test, Version 2.0 (Roche Diagnostics) following 36–48 hours of incubation of cells with the above study compounds. The limit of detection was 20 copies/mL.

[2] = Plasma cytokine quantification after in vivo administration; details: following administration to C57/bl6 mice
Description: Quantification of the levels of the murine cytokines IL-2, IL-6, MIP-1-alpha, and TNF-alpha in mouse plasma samples was performed using a custom Milliplex Mouse Cytokine/Chemokine Magnetic Kit (Millipore) according to the manufacturer’s recommendations. Wash steps were performed using a Bio-Plex II Wash Station (Bio-Rad), and the data were acquired using a Bio-Plex 200 System with high-throughput fluidics (Bio-Rad). The resultant data were analyzed using Bio-Plex Manager 6.1 software.

HIV strain NL-HA = format: in vivo, humanized BLT mice; details: IP injection while maintaining ART, overnight incubation
[3] = CD4+ T cells from 3 ART-treated patients, 48h

C=C1C[C@H]2C[C@]3(O)O[C@H](C[C@@H](O)CC(=O)O[C@@H](CO)C[C@@H]4C/C(=C\C(=O)OC)[C@H](OC(=O)CCCCCCC)[C@@](O)(O4)C(C)(C)/C=C/[C@@H](C1)O2)C[C@H](OC(C)=O)C3(C)C [SUW133]
Ki (PKC alpha): 1.8 nM
Ki (PKC beta I): 6.3 nM
Ki (PKC delta): 2 nM
Ki (PKC epsilon): 5.8 nM
Ki (PKC eta): 6.4 nM
Ki (PKC gamma): 5.6 nM
Ki (PKC theta): 2 nM
amount of cell-free virion-associated HIV RNA relative to maximal T cell stimulation (costimulation) [1, 3]: approximately 1/3
virus production compared with other LRAs [1, 3]: significantly outperformed panobinostat, vorinostat, JQ1, and bryostatin 1 treatment
induction of latent virus (cell-free virion-associated viral RNA) ([1]; resting CD4+ T cells from 6 aviremic patients, 50 nM, 36h): induced significant levels of latent virus
plasma concentration of MIP-1-alpha [2]: no detectable increase
plasma concentration of TNF-alpha [2]: no detectable increase
plasma concentration of interleukin (IL)-2 [2]: no detectable increase
plasma IL-6 levels ([2]; days 1 to 9): only a short-term elevation; also recorded: declined significantly between days 1 and 9 post-injection
percentage of HA+ (HIV-expressing) cells (HIV strain NL-HA): induced significant numbers of latently-infected cells to express viral proteins
